Where two headings read alike, the source gives them in different places.
Experiments:
JAK-2 enzyme = JAK-2 enzyme (Homo sapiens, UniProt O60674); experiment: JAK2 inhibition assay (radiometric 33P filter assay); assay type: biochemical
Summary of the method: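 JAK-2 enzyme in 100 mM HEPES pH 7.4, 1 mM DTT, 10 mM MgCl2, 25 mM NaCl, 0.01% BSA, with final 12 μM [33P]ATP and 15 μM poly(Glu)4Tyr. Reactions ran 20 min at 25 °C and were stopped with TCA. 33P incorporation was counted after glass-fibre filtration.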

JAK3 = molecular target: T1, JAK3 (Homo sapiens, UniProt P52333); experiment: JAK3 inhibition assay (radiometric 33P filter assay); assay type: biochemical
T1 sequence (P52333 1-1124): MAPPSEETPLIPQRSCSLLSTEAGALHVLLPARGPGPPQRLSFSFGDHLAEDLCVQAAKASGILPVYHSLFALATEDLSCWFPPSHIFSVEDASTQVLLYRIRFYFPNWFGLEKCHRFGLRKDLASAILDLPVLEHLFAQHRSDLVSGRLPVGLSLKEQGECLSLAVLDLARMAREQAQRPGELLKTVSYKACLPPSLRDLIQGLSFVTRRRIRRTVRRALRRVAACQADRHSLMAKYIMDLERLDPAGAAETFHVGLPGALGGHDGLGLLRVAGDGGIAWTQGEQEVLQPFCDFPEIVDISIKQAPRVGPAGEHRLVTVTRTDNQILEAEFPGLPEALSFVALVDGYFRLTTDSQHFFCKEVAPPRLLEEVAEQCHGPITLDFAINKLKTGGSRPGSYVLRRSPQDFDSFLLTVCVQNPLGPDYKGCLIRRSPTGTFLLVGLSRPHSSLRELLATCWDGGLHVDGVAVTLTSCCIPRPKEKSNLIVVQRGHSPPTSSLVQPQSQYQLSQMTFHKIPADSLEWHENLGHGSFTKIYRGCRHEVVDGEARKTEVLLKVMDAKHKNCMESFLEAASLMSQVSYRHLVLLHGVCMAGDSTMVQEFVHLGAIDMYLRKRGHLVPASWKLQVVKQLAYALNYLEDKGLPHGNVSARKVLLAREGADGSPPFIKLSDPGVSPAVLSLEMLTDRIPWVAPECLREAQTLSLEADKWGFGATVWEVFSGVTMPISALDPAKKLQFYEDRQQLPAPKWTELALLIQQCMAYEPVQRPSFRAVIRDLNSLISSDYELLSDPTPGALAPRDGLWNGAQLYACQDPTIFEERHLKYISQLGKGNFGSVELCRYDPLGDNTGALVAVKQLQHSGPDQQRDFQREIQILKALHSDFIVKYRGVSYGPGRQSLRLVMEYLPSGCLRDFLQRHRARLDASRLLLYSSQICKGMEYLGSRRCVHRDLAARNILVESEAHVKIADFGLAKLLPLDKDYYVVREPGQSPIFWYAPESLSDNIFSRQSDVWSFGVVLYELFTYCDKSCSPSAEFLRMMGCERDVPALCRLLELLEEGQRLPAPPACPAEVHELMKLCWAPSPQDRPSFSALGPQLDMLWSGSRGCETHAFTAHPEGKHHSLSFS
Summary of the method: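 Final conditions were 1 nM JAK3, 5 μM ATP (200 uCi/μmole) and 1 μM poly(Glu)4Tyr in 100 mM HEPES pH 7.4, 10 mM MgCl2, 25 mM NaCl, 1 mM DTT and 0.01% BSA. After 20 min at 25 °C the reaction was stopped with TCA. 33P incorporation was counted after glass-fibre filtration.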

[1] = 15 μM poly(Glu)4Tyr, 12 μM ATP, read-out: JAK2 inhibition data (Ki)
[2] = 1 μM poly(Glu)4Tyr, 5 μM ATP, 1 nM JAK3, 25° C., read-out: JAK3 inhibition data (Ki)

Chain of JAK-2 enzyme (O60674 whole entry, species assumed): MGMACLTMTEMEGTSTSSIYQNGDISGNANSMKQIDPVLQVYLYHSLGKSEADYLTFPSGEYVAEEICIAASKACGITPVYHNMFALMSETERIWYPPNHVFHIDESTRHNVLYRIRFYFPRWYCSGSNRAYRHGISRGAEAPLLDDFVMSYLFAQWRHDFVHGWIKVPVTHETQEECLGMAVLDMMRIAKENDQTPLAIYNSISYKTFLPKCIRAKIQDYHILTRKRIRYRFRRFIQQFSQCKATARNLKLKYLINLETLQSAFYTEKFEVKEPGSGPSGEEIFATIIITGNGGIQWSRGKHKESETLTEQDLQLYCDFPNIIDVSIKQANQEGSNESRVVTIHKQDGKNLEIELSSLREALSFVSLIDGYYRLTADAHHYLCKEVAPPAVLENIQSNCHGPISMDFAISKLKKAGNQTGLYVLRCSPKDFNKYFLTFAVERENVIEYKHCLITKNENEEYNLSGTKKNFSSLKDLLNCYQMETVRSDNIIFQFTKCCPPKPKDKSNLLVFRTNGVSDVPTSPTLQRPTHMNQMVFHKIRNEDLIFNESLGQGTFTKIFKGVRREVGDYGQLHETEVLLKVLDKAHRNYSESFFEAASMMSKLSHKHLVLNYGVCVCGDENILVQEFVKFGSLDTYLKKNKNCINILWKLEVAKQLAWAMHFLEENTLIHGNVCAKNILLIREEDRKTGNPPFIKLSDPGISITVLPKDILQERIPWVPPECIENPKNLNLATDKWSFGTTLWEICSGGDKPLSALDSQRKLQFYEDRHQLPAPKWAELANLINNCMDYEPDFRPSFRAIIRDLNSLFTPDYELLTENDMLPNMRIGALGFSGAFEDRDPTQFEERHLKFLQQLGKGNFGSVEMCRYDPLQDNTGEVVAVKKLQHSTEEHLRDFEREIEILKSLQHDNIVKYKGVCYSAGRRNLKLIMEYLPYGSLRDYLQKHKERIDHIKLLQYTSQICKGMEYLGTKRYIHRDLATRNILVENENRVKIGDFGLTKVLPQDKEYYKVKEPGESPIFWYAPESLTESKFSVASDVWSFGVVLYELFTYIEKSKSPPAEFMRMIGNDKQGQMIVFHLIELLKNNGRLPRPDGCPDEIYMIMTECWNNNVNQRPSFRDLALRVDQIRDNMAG

Row | Structure (SMILES) | Ki (JAK-2 enzyme; [1]) | Ki (JAK3; [2]) | Ki (JAK-2 enzyme) | Ki (JAK3)
1 | CC(=O)N1CCCN(c2cc(-n3nc(Nc4ccc(N(C)C(=O)OCC(C)C)cc4)nc3N)ncn2)CC1 [Compound 131] | < 50 nM | < 50 nM |  | 
2 | CC(=O)N1CCCN(c2cc(-n3nc(Nc4ccc(N(C)C(=O)OCC(C)(C)C)cc4)nc3N)ncn2)CC1 [Compound 132] | < 50 nM | < 50 nM |  | 
3 | CC(=O)N1CCCN(c2cc(-n3nc(Nc4ccc(N(C)C(=O)Oc5ccc(C)cc5)cc4)nc3N)ncn2)CC1 [Compound 133] |  |  | < 50 nM | < 50 nM
4 | CC(=O)N1CCCN(c2cc(-n3nc(Nc4ccc(N(C)C(=O)Oc5ccccc5)cc4)nc3N)ncn2)CC1 [Compound 134] |  |  | < 50 nM | < 50 nM
5 | COc1ccc(OC(=O)N(C)c2ccc(Nc3nc(N)n(-c4cc(N5CCCN(C(C)=O)CC5)ncn4)n3)cc2)cc1 [Compound 135] |  |  | < 50 nM | < 50 nM
6 | CC(C)(C)OC(=O)Nc1ccc(Nc2nc(N)n(-c3cc(N4CCCN(C(=O)CC#N)CC4)ncn3)n2)cc1 [Compound 136] | < 50 nM | < 50 nM |  | 
7 | CCOC(=O)Nc1ccc(Nc2nc(N)n(-c3cc(N4CCCN(C(=O)CC#N)CC4)ncn3)n2)cc1 [Compound 137] | < 50 nM | < 50 nM |  | 
8 | Cc1ccc(OC(=O)Nc2ccc(Nc3nc(N)n(-c4cc(N5CCCN(C(=O)CC#N)CC5)ncn4)n3)cc2)cc1 [Compound 138] | < 50 nM | < 50 nM |  | 
9 | CCCOC(=O)N1CCN(c2ccc(Nc3nc(N)n(-c4ccnc(N5C[C@@H](C)N(C(C)=O)[C@@H](C)C5)c4)n3)cc2)CC1 [Compound 139] | < 50 nM | < 50 nM |  | 
10 | CCCOC(=O)N1CCN(c2ccc(Nc3nc(N)n(-c4ccnc(N5CCCN(C(=O)CC#N)CC5)c4)n3)cc2)CC1 [Compound 140] | < 50 nM | < 50 nM |  | 
11 | CC(=O)N1[C@H](C)CN(c2cc(-n3nc(Nc4ccc(N5CCN(C(=O)OCC(C)(C)C)CC5)cc4)nc3N)ccn2)C[C@@H]1C [Compound 142] | < 50 nM | < 50 nM |  | 
12 | CC(=O)N1[C@H](C)CN(c2cc(-n3nc(Nc4ccc(N5CCN(C(=O)OC(C)C)CC5)cc4)nc3N)ccn2)C[C@@H]1C [Compound 143] | < 50 nM | < 50 nM |  | 
13 | CCOC(=O)N1CCN(c2ccc(Nc3nc(N)n(-c4cc(N5CCCN(S(C)(=O)=O)CC5)ncn4)n3)cc2)CC1 [Compound 144] | 50 to 500 nM | 50 to 500 nM |  | 
14 | CCOC(=O)N1CCN(c2ccc(Nc3nc(N)n(-c4cc(N5CCCN(S(=O)(=O)CC)CC5)ncn4)n3)cc2)CC1 [Compound 145] | 50 to 500 nM | 50 to 500 nM |  | 
15 | CCCS(=O)(=O)N1CCCN(c2cc(-n3nc(Nc4ccc(N5CCN(C(=O)OCC)CC5)cc4)nc3N)ncn2)CC1 [Compound 146] | 50 to 500 nM | 50 to 500 nM |  | 
16 | CCCCS(=O)(=O)N1CCCN(c2cc(-n3nc(Nc4ccc(N5CCN(C(=O)OCC)CC5)cc4)nc3N)ccn2)CC1 [Compound 147] | 50 to 500 nM | 50 to 500 nM |  | 
17 | CCOC(=O)N1CCN(c2ccc(Nc3nc(N)n(-c4ccnc(N5CCCN(C(=O)OC)CC5)c4)n3)cc2)CC1 [Compound 148] | 50 to 500 nM | 50 to 500 nM |  | 
18 | CCOC(=O)N1CCN(c2ccc(Nc3nc(N)n(-c4ccnc(N5CCCN(C(=O)OCC)CC5)c4)n3)cc2)CC1 [Compound 149] | 50 to 500 nM | 50 to 500 nM |  | 
19 | CCCOC(=O)N1CCCN(c2cc(-n3nc(Nc4ccc(N5CCN(C(=O)OCC)CC5)cc4)nc3N)ccn2)CC1 [Compound 150] | 50 to 500 nM | 50 to 500 nM |  | 
20 | CCOC(=O)N1CCN(c2ccc(Nc3nc(N)n(-c4ccnc(N5CCCN(C(=O)OC(C)C)CC5)c4)n3)cc2)CC1 [Compound 151] | 50 to 500 nM | 50 to 500 nM |  | 
21 | CCS(=O)(=O)N1CCN(c2ccc(Nc3nc(N)n(-c4ccnc(N5CCCN(C(=O)OC)CC5)c4)n3)cc2)CC1 [Compound 152] | 50 to 500 nM | 50 to 500 nM |  | 
22 | CCOC(=O)N1CCCN(c2cc(-n3nc(Nc4ccc(N5CCN(S(=O)(=O)CC)CC5)cc4)nc3N)ccn2)CC1 [Compound 153] | 50 to 500 nM | 50 to 500 nM |  | 

Row | Structure (SMILES) | Ki (JAK-2 enzyme; [1]) | Ki (JAK3; [2]) | Ki (JAK-2 enzyme) | Ki (JAK3)
23 | CCCOC(=O)N1CCCN(c2cc(-n3nc(Nc4ccc(N5CCN(S(=O)(=O)CC)CC5)cc4)nc3N)ccn2)CC1 [Compound 154] | 50 to 500 nM | 50 to 500 nM |  | 
24 | CCS(=O)(=O)N1CCN(c2ccc(Nc3nc(N)n(-c4ccnc(N5CCCN(C(=O)OC(C)C)CC5)c4)n3)cc2)CC1 [Compound 155] | 50 to 500 nM | 50 to 500 nM |  | 
25 | COC(=O)N1CCCN(c2cc(-n3nc(Nc4ccc(N5CCN(C(=O)OC(C)C)CC5)cc4)nc3N)ccn2)CC1 [Compound 156] | 50 to 500 nM | 50 to 500 nM |  | 
26 | CCOC(=O)N1CCCN(c2cc(-n3nc(Nc4ccc(N5CCN(C(=O)OC(C)C)CC5)cc4)nc3N)ccn2)CC1 [Compound 157] | 50 to 500 nM | 50 to 500 nM |  | 
27 | CCCOC(=O)N1CCN(c2ccc(Nc3nc(N)n(-c4ccnc(N5CCCN(C(=O)OC)CC5)c4)n3)cc2)CC1 [Compound 158] | 50 to 500 nM | 50 to 500 nM |  | 
28 | CCCOC(=O)N1CCN(c2ccc(Nc3nc(N)n(-c4ccnc(N5CCCN(C(=O)OCC)CC5)c4)n3)cc2)CC1 [Compound 159] | 50 to 500 nM | 50 to 500 nM |  | 
29 | CCCOC(=O)N1CCN(c2ccc(Nc3nc(N)n(-c4ccnc(N5CCCN(C(=O)OCCC)CC5)c4)n3)cc2)CC1 [Compound 160] | 50 to 500 nM | 50 to 500 nM |  | 
30 | CCCOC(=O)N1CCN(c2ccc(Nc3nc(N)n(-c4ccnc(N5CCCN(C(=O)OC(C)C)CC5)c4)n3)cc2)CC1 [Compound 161] | 50 to 500 nM | 50 to 500 nM |  | 
31 | CCCOC(=O)N1CCN(c2ccc(Nc3nc(N)n(-c4ccnc(N5CCCN(S(C)(=O)=O)CC5)c4)n3)cc2)CC1 [Compound 162] | 50 to 500 nM | 50 to 500 nM |  | 
32 | CCCOC(=O)N1CCN(c2ccc(Nc3nc(N)n(-c4ccnc(N5CCCN(S(=O)(=O)CC)CC5)c4)n3)cc2)CC1 [Compound 163] | 50 to 500 nM | 50 to 500 nM |  | 
33 | CCCOC(=O)N1CCN(c2ccc(Nc3nc(N)n(-c4ccnc(N5CCCN(S(=O)(=O)CCC)CC5)c4)n3)cc2)CC1 [Compound 164] | 50 to 500 nM | 50 to 500 nM |  | 
34 | CCCOC(=O)N1CCN(c2ccc(Nc3nc(N)n(-c4ccnc(N5CCCN(S(=O)(=O)C(C)C)CC5)c4)n3)cc2)CC1 [Compound 165] | 50 to 500 nM | 50 to 500 nM |  | 
35 | CCOC(=O)N1CCN(c2ccc(Nc3nc(N)n(-c4cc(N5CCC6CCC(C5)N6C)ncn4)n3)cc2)CC1 (stereo not shown) [Compound 166] | < 50 nM | < 50 nM |  | 
36 | CCOC(=O)N1CCN(c2ccc(Nc3nc(N)n(-c4cc(NC)ncn4)n3)cc2)CC1 [Compound 167] | < 50 nM | < 50 nM |  | 
37 | CC(C)OC(=O)N1CCN(c2ccc(Nc3nc(N)n(-c4ccnc(N5CCCN(S(C)(=O)=O)CC5)c4)n3)cc2)CC1 [Compound 168] | 50 to 500 nM | 50 to 500 nM |  | 
38 | CCS(=O)(=O)N1CCCN(c2cc(-n3nc(Nc4ccc(N5CCN(C(=O)OC(C)C)CC5)cc4)nc3N)ccn2)CC1 [Compound 169] | 50 to 500 nM | 50 to 500 nM |  | 
39 | COC(=O)Nc1ccc(Nc2nc(N)n(-c3ccnc(N4CCCN(C(C)=O)CC4)c3)n2)cc1 [Compound 170] | 50 to 500 nM | 50 to 500 nM |  | 
40 | CCOC(=O)Nc1ccc(Nc2nc(N)n(-c3ccnc(N4CCCN(C(C)=O)CC4)c3)n2)cc1 [Compound 171] | 50 to 500 nM | < 50 nM |  | 
41 | CCCOC(=O)Nc1ccc(Nc2nc(N)n(-c3ccnc(N4CCCN(C(C)=O)CC4)c3)n2)cc1 [Compound 172] | 50 to 500 nM | < 50 nM |  | 
42 | CCCCOC(=O)Nc1ccc(Nc2nc(N)n(-c3ccnc(N4CCCN(C(C)=O)CC4)c3)n2)cc1 [Compound 174] | 50 to 500 nM | 50 to 500 nM |  | 
43 | CC(=O)N1CCCN(c2cc(-n3nc(Nc4ccc(NC(=O)OCC(C)C)cc4)nc3N)ccn2)CC1 [Compound 175] | 50 to 500 nM | 50 to 500 nM |  | 
44 | CC(=O)N1CCCN(c2cc(-n3nc(Nc4ccc(NC(=O)OCC(C)(C)C)cc4)nc3N)ccn2)CC1 [Compound 176] | 50 to 500 nM | 50 to 500 nM |  | 

Reference: US7329652B2, “Diaminotriazole compounds useful as protein kinase inhibitors” (Vertex Pharamaceuticals Incorporated, priority 2004, dated 2008)
